According to article PMC5826726 (Biochemical pharmacology, 2017):
Read-outs that look alike come from different tables or passages of the source.

Tests used:
[1] = PAMPA; for Flux: 4 h, 400 µM
NNMT [2] = target: T1, NNMT (Mus musculus, UniProt O55239); test: Intracellular NNMT reaction product 1-MNA in cultured 3T3-L1 cells; conditions: 24 h; for 1-MNA levels in adipocytes relative to control: 10 µM; for Intracellular levels of 1-MNA vs untreated controls: 30 µM
T1 sequence (O55239 1-264): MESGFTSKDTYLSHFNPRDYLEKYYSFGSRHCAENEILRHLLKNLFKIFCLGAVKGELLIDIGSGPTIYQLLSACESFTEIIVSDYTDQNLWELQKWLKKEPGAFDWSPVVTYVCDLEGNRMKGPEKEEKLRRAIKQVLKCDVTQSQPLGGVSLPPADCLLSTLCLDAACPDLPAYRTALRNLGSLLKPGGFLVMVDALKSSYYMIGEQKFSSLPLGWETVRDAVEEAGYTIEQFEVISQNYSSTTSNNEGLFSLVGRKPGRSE

NNMT [3] = target: T1, NNMT; conditions: read-out: IC50 (NNMT inhibition); biochemical assay; cited from earlier work
recombinant human NAMPT = recombinant human NAMPT (Homo sapiens, UniProt P43490); test: NAMPT fluorometric activity assay; type: biochemical
Chain of recombinant human NAMPT (P43490 whole entry): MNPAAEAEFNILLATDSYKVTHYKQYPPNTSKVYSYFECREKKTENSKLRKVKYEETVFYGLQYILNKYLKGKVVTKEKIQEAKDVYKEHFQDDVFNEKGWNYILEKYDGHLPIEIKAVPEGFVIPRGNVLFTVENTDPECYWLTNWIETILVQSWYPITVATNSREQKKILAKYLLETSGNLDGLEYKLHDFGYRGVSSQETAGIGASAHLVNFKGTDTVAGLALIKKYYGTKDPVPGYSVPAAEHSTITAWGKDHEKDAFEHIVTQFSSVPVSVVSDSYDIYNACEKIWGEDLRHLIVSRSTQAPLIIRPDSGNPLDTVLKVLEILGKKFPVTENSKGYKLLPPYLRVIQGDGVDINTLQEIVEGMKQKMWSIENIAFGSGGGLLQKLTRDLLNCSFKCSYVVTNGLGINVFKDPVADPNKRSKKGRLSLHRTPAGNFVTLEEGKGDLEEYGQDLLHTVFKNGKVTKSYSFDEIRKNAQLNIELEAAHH

[4] = Parallel artificial membrane permeability assay; conditions: for Flux: PAMPA passive transport, 400 µM donor in PBS, 4 h, room temperature; for Permeability Classification: PAMPA, BCS, Biopharmaceutics Classification System
Caco-2 cells [5] = conditions: for Classification (Caco-2 permeability/efflux) / Efflux Ratio (Re): Caco-2; for Mean A➔B Papp / Mean B➔A Papp: Caco-2, pH 7.4
3T3-L1 pre-adipocytes = test: MTT cell viability assay; type: cell-based; conditions: highest tested concentration (0.1 – 60 µM range, Figure 6C)
Caco-2 cells [6] = test: Bi-directional permeability assay with Caco-2 cells
recombinant human PRMT3 = recombinant human PRMT3 (Homo sapiens, UniProt O60678); test: PRMT3 radiometric activity assay; type: biochemical; conditions: for Inhibition of PRMT3: 10 nM to 200 µM (1,8-diMQ) or 600 µM (5-amino-1MQ)
Chain of recombinant human PRMT3 (O60678 whole entry): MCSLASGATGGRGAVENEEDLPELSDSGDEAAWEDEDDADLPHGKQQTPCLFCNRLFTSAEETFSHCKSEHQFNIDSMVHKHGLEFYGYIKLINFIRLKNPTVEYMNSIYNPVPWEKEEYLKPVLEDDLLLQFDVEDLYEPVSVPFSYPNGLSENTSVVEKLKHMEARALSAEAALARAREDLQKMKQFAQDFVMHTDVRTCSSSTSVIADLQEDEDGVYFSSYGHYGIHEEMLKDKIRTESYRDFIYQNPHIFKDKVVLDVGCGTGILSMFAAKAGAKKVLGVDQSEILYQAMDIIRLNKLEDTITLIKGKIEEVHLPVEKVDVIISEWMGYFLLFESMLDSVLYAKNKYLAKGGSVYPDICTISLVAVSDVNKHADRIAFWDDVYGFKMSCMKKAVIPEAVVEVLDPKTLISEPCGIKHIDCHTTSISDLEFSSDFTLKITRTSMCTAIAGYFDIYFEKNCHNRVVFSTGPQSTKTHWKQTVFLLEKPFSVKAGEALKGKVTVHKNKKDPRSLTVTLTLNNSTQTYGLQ

recombinant human COMT = target: T2, recombinant human COMT (Homo sapiens, UniProt P21964); test: COMT radiometric activity assay; type: biochemical
T2 sequence (P21964 1-271): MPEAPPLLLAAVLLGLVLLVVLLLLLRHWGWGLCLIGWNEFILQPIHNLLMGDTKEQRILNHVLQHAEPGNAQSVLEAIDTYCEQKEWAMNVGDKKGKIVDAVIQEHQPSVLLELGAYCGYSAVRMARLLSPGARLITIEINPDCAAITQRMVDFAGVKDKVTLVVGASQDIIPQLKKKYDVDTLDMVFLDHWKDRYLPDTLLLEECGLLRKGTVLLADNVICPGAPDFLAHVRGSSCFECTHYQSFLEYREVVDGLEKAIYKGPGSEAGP

recombinant human SIRT-1 = target: T3, recombinant human SIRT-1 (Homo sapiens, UniProt Q96EB6); test: SIRT-1 fluorometric activity assay; type: biochemical
T3 sequence (Q96EB6 1-747): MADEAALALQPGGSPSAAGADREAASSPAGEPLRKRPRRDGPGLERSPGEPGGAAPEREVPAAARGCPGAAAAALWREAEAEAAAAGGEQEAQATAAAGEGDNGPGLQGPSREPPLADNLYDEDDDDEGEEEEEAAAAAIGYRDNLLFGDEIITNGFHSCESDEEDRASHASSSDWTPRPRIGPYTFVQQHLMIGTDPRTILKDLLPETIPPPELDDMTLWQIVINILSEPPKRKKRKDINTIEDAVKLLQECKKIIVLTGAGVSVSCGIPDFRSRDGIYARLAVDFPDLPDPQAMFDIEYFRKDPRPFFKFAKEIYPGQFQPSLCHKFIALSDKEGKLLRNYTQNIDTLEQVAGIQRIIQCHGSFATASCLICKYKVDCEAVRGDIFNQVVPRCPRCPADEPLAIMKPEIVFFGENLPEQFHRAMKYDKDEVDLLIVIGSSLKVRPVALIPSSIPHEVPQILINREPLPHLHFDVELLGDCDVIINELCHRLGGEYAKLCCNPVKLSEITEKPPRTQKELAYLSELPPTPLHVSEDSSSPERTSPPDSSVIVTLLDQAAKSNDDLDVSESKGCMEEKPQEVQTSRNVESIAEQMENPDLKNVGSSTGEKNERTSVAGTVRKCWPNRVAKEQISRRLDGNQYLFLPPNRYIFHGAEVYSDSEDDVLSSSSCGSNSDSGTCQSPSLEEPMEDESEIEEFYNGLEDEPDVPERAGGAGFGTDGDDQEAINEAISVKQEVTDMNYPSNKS

recombinant human DNMT1 = recombinant human DNMT1 (Homo sapiens, UniProt P26358); test: DNMT1 radiometric activity assay; type: biochemical; conditions: for Inhibition of DNMT1: 10 nM to 200 µM (1,8-diMQ) or 600 µM (5-amino-1MQ); for IC50: read-out: IC50, DNA (cytosine-5)-methyltransferase 1, NI: no inhibition, NC: not calculable
Chain of recombinant human DNMT1 (P26358 whole entry): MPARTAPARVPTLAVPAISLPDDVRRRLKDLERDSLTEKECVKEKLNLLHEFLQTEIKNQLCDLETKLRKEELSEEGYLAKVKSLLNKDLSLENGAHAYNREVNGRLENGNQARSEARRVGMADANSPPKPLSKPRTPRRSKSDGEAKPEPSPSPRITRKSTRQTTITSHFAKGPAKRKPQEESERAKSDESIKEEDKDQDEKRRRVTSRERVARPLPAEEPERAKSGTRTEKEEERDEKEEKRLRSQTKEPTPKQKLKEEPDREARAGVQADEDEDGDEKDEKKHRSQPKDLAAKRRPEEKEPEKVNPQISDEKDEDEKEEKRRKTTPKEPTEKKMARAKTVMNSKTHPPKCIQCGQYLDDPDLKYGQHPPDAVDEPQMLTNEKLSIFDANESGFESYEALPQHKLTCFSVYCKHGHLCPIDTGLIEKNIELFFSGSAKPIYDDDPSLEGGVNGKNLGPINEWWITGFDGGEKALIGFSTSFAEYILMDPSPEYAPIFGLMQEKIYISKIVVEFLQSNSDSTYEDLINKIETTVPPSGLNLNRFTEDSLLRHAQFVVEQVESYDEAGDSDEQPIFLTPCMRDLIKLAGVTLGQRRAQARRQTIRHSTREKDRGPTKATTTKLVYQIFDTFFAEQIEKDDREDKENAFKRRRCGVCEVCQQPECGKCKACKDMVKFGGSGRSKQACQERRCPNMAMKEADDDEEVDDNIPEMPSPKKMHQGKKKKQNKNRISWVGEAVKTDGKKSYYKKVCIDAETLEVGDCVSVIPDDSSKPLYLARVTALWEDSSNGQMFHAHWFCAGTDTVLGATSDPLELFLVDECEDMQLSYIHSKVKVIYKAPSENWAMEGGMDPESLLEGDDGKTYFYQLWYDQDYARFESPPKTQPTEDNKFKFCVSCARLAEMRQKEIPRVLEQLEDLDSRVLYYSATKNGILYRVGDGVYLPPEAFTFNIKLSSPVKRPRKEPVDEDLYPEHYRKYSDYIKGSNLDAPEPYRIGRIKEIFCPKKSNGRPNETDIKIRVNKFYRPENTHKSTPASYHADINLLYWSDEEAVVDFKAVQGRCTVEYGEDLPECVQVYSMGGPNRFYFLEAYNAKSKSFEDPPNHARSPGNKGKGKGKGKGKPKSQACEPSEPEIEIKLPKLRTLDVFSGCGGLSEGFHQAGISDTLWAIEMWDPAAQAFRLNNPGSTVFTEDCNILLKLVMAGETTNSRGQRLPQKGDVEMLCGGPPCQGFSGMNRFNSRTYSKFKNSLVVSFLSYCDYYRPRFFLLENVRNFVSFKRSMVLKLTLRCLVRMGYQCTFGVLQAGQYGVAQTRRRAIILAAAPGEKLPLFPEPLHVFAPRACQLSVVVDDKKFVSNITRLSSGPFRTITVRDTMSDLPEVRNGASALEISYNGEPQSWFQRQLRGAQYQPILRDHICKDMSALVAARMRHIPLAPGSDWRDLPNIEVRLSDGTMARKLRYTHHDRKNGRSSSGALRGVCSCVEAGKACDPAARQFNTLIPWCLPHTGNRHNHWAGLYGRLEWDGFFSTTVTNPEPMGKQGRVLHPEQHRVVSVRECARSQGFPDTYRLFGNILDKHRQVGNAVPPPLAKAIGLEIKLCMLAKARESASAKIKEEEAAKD

3T3-L1 cells = test: Adipocyte differentiation / lipogenesis by oil red O staining; type: cell-based; conditions: differentiating 3T3-L1 cells
[7] = test system: differentiated 3T3-L1 adipocytes; test: Intracellular metabolites; conditions: 24 h
DIO C57Bl/6 mice = test: Efficacy in diet-induced obese; type: in vivo
[8] = DIO mice, 20 mg/kg SC three times daily, 11 days

With c1ccc2ncccc2c1 [Quinoline, reference compound] the “Permeability Classification” value [1] was “High permeability”.

In the case of C[n+]1cc(N)cc2cc(F)ccc21 [3-amino-6-fluoro-1MQ], the “1-MNA levels in adipocytes relative to control” value (NNMT [2]; differentiated adipocytes) is listed as “significantly decreased”, the IC50 (NNMT [3]) is listed as 1200 nM and the “Permeability Classification” value [1] is listed as “Moderate permeability”. The Flux [1] was 1.078e-06 cm/s.

With C[n+]1cccc2c(N)c(F)ccc21 [5-amino-6-fluoro-1MQ] the “Inhibition of NAMPT” value (recombinant human NAMPT; concentrations between 30 and 600 µM (data not shown)) was “no inhibition”.

In the case of C[n+]1cccc(C(N)=O)c1 [1-MNA, 1-methylnicotinamide, reference compound], the Flux [4] is reported as 0 cm/s and the “Permeability Classification” value [4] is reported as “No permeability”.

In the case of C[n+]1c(N)c(N)cc2ccccc21 [2,3-diamine-1MQ], the IC50 (NNMT [3]) is listed as 2800 nM, the “Classification (Caco-2 permeability/efflux)” value (Caco-2 cells [5]) is listed as “Moderate permeability (moderate efflux)” and the “Efflux Ratio (Re)” value (Caco-2 cells [5]) is listed as 4.03. The “Mean A➔B Papp” value (Caco-2 cells [5]) was 5.27 10^−6 cm/s, the “Mean B➔A Papp” value (Caco-2 cells [5]) was 21.2 10^−6 cm/s and the “Permeability Classification” value [1] was “High permeability”. The Flux [1] was 3.898e-06 cm/s.

In the case of C[n+]1cccc2ccc(N)cc21 [7-amino-1MQ], the IC50 (NNMT [3]) is given as 2600 nM, the “Classification (Caco-2 permeability/efflux)” value (Caco-2 cells [5]) is given as “High permeability (no efflux)” and the “Efflux Ratio (Re)” value (Caco-2 cells [5]) is given as 1.52. The “Mean A➔B Papp” value (Caco-2 cells [5]) was 26.0 10^−6 cm/s, the “Mean B➔A Papp” value (Caco-2 cells [5]) was 39.6 10^−6 cm/s and the “Permeability Classification” value [1] was “High permeability”. For the same compound, the Flux [1] was 2.055e-06 cm/s.

In the case of Cc1cc(C)[n+](C)c2c(C)cccc12 [1,2,4,8-tetraMQ], the “1-MNA levels in adipocytes relative to control” value (NNMT [2]; differentiated adipocytes) is listed as “did not significantly decrease”, the IC50 (NNMT [3]) is listed as 109000 nM and the “Permeability Classification” value [1] is listed as “Low permeability”. The Flux [1] was 6.982e-07 cm/s.

For C[n+]1cccc2c(N)cccc21 [5-amino-1MQ, 5-amino-1-methylquinolinium], the “3T3-L1 cell viability vs untreated” value (3T3-L1 pre-adipocytes) was “only slightly reduced”, the “Relative intracellular 1-MNA level (of level in untreated adipocytes)” value (NNMT [2]; adipocytes, 10–60 µM, plateau) was ~ 40% and the “1-MNA levels in adipocytes relative to control” value (NNMT [2]; differentiated adipocytes) was “significantly decreased”. The “Intracellular levels of 1-MNA vs untreated controls” value (NNMT [2]; differentiated adipocytes) was “significant reduction”, the “Intracellular levels of 1-MNA vs untreated controls” value (NNMT [2]; pre-adipocytes) was “significant reduction” and the EC50 (NNMT [2]; read-out: EC50 (inhibition of NNMT, intracellular 1-MNA), fully differentiated adipocytes, 0.3–60 µM) was 2300 nM. For the same compound, the IC50 (recombinant human NAMPT; read-out: IC50, Nicotinamide phosphoribosyl transferase, concentrations above 100 µM could not be tested due to interference in the assay readout signal) was > 100000 nM, the “Inhibition of NAMPT” value (recombinant human NAMPT; up to a tested concentration of 100 µM) was “did not inhibit” and the “Efflux Ratio (Re)” value (Caco-2 cells [6]; Re=Papp (B→A)/Papp (A→B)) was 1.33. For the same compound, the “Inhibition of PRMT3” value (recombinant human PRMT3) was “did not inhibit”, the IC50 (NNMT [3]) was 1200 nM and the “Inhibition of COMT” value (recombinant human COMT; maximal tested concentration 600 µM) was 10%. The “Inhibition of SIRT1” value (recombinant human SIRT-1; 10 nM – 300 µM) was “did not inhibit”, the SIRT1 activity (recombinant human SIRT-1; 600 µM) was “minor reduction” and the “Inhibition of DNMT1” value (recombinant human DNMT1) was “did not inhibit”. The IC50 (recombinant human DNMT1) was > 200000 nM, the “Reduction of lipogenesis vs control untreated adipocytes” value (3T3-L1 cells; 30 µM) was 50% and the “Reduction of lipogenesis vs control untreated adipocytes” value (3T3-L1 cells; 60 µM) was 70%. For the same compound, the “Classification (Caco-2 permeability/efflux)” value (Caco-2 cells [5]) was “High permeability (no efflux)”, the “Mean A➔B Papp” value (Caco-2 cells [5]) was 34.2 10^−6 cm/s and the “Mean B➔A Papp” value (Caco-2 cells [5]) was 45.2 10^−6 cm/s. The “Intracellular NAD+ levels vs control” value ([7]; 10 µM) was “significant increase”, the “Intracellular SAM levels vs control” value ([7]; 30 µM) was “significant increase” and the “Intracellular levels of NA” value ([7]; 0.3–60 µM) was “no statistically significant main effect”. The “Intracellular levels of SAH” value ([7]; 0.3–60 µM) was “no statistically significant main effect”, the “Increase in NAD+ levels relative to control adipocytes” value ([7]; 1–60 µM) was 1.2–1.6 fold and the “Tolerability in dose escalation study” value (DIO C57Bl/6 mice; DIO mice (n=2), total dose of 60 mg/kg/day) was “well tolerated with no observable adverse effects”. The “Decrease in adipocyte size (EWAT histology) vs control DIO mice” value (DIO C57Bl/6 mice; [8]) was > 30%, the “Total cumulative food intake” value (DIO C57Bl/6 mice; [8]) was 26.2 ± 1.4 g and the “Decrease in adipocyte volume vs control DIO mice” value (DIO C57Bl/6 mice; DIO mice, 20 mg/kg SC three times daily, 11 days (data not shown)) was > 40%. The “Plasma total cholesterol lower relative to control DIO mice” value (DIO C57Bl/6 mice; DIO mice, 20 mg/kg SC three times daily, 11 days, 4 h fast) was ~ 30%, the “Permeability Classification” value [1] was “High permeability” and the Flux [1] was 3.015e-06 cm/s.

For C[n+]1cccc2ccccc21 [1-MQ, 1-methylquinolinium], the IC50 (NNMT [3]) is given as 12100 nM and the “Permeability Classification” value [1] is given as “No permeability”.

Nc1ncnc2c1ncn2[C@@H]1O[C@H](CSCC[C@H](N)C(=O)O)[C@@H](O)[C@H]1O [SAH, reference compound] gave an IC50 (recombinant human PRMT3; read-out: IC50, Protein arginine methyltransferase 3, NI: no inhibition, NC: not calculable) of 6600 ± 1200 nM.

In the case of Cc1cccc2ccc[n+](C)c12 [1,8-diMQ], the “Mean B➔A Papp” value (Caco-2 cells [6]; Caco-2, 10 µM, 2 h, pH 7.4) is reported as 1.78 10^−6 cm/s, the “Mean A➔B Papp” value (Caco-2 cells [6]; Caco-2, 10 µM, 2 h, pH 7.4, BLQ: no peak detected in receiver side sample) is reported as “BLQ” and the “Classification (Caco-2 permeability/efflux)” value (Caco-2 cells [6]; Caco-2 assay) is reported as “Low permeability”. For the same compound, the Flux [4] was 8.637e-07 cm/s, the “Permeability Classification” value [4] was “Low permeability” and the “Inhibition of PRMT3” value (recombinant human PRMT3) was “did not inhibit”. The IC50 (NNMT [3]) was 1800 nM, the “Inhibition of COMT” value (recombinant human COMT; maximal tested concentration 200 µM) was 20% and the “Inhibition of DNMT1” value (recombinant human DNMT1) was “did not inhibit”. For the same compound, the IC50 (recombinant human DNMT1) was > 200000 nM.
